Data as given in article PMC7801115, “Preclinical in vitro screening of newly synthesised amidino substituted benzimidazoles and benzothiazoles” (Journal of Enzyme Inhibition and Medicinal Chemistry, 2021).
Read-outs that look alike come from different tables or passages of the source.

How the values were obtained:
NCI-H358 [1] = assay: BrdU proliferation assay, 2D cell culture; type: cell-based; conditions: Homo sapiens, NCI-H358, 2D cell culture, ±SD, N = 2
Procedure: (§1) Cells were grown in 96 well cell star polystyrene plates. 10,000 cells/well were seeded in wells 4 h prior the treatment with different compounds concentrations and incubated for 72 h. A cell viability assay was performed according to the manufacturer’s instruction, using CellTiter 96 aqueous solution, MTS kit (Promega, Madison, WI, USA). After 0.5–2 h of cell incubation with MTS in 2 D cell culture, the plates were read using PE EnVision absorbance at 490 nm. […] Since we prefer homogeneous assays (mix and read procedures) and therefore MTS is more practical (one step less than MTT). MTS is more sensitive and accurate in comparison with MTT assay.
(§2) Proliferation assay was performed using Cell Proliferation ELISA, BrdU (Sigma, St. Louis, MO, USA). Briefly, 48 h hours after compound addition, 10 µM of BrdU was added to each well and incubated for following 24 h. After incubation, single cell suspension was made for 3 D cell culture in the new 96 well plate. Plates were centrifuged and supernatants were removed from each plate (for 2 D and 3 D cell culture) followed by 60 min incubation at 60° C. The rest of the proliferation assay was performed according to the manufacturer instructions.
(§3) Calculation of IC50 data, curves and QC analysis is made by using Excel tools and GraphPadPrism software (La Jolla, CA), v. […] QC criteria parameters (Z', S:B, R2, HillSlope) were checked for every IC50 curve.

HCC827 [2] = assay: BrdU proliferation assay, 2D cell culture; type: cell-based; conditions: Homo sapiens, HCC827, 2D cell culture, ±SD, N = 2
Procedure: as §1, §2, §3

[3] = Plasma protein binding, equilibrium dialysis; type: in vitro ADME; conditions: for fraction unbound at 4 h, 5 µM: equilibrium dialysis 4 h, 37 °C; for recovery at 4 h, 5 µM: recovery in PPB experiment (value in brackets)
Procedure: The extent of binding to plasma proteins was assessed using equilibrium dialysis method. Plasma (human and mouse) was spiked with test compounds and three controls (nicardipine and verapamil in both species, acebutolol in human and caffeine in mouse plasma) to obtain final concentration of 5 µM (0.5%DMSO). Hydrated membranes were inserted into equilibrium dialysis unit (HT Dialysis) according to manufacturer’s instructions. The dialysate side was then loaded with appropriate volume of buffer, while the same volume of spiked plasma was added into sample side of the well. Incubation lasted 4 h at 37 °C with gentle shaking. Afterwards, protein precipitation was done by mixing matrix matched aliquot of plasma or buffer with 3 volumes of MeCN/MeOH (2:1) mixture, containing internal standard (diclofenac). After centrifugation (at 4500 rpm, at 4 °C, for 30 min) resulting supernatants were subjected to LC-MS/MS.
All ADME samples were analysed on a Sciex API 4000 or Sciex API4500 Triple Quadrupole Mass Spectrometer (Sciex, Framingham, MA, USA) coupled to a UHPLC System (Shimadzu Nexera X2; Shimadzu, Kyoto, Japan). Samples were injected onto an UPLC column (HALO2 C18, 2.1 × 20 mm, 2 µm or Phenomenex Luna Omega Polar C18, 30 × 2.1 mm, 1.6 µm) and eluted with a gradient at temperature of 50 °C. The mobile phase was composed of acetonitrile (with 0.1% formic acid) and 0.1% formic acid in deionised water. A total run time was 1 or 1.5 min, with the flow rate of 0.7 ml/min (under gradient conditions). A positive ion mode with turbo spray, an ion source temperature of 500 °C and a dwell time of 150 ms were utilised for mass spectrometric detection. Multiple reaction monitoring (MRM) was used at the specific transitions for each compound/control tested: compound 5c: 361.9 → 304.9; compound 5d: 344.8 → 287.9; compound 5e: 349.8 → 292.9; compound 5 g: 350.8 → 293.9; compound 5 h: 344.0 → 286.9; compound 6a: 276.9 → 220.0; compound 5 b: 319.0 → 262.0; compound 6 b: 302.1 → 245.1; compound 6c: 344.9 → 288.0; compound 6d: 333.0 → 276.0; compound 6e: 316.1 → 259.0; compound 6f: 327.1 → 270.0; compound 6 g: 377.1 → 320.1; testosterone: 289.3→ 97.1; propranolol: 260.1 → 182.8; caffeine: 195.2 → 138.1; acebutolol: 337.2 → 116.2, nicardipine: 480.2 → 315.0; verapamil: 455.4 → 165.1; amprenavir: 506.2 → 245.4; diclofenac: 296.1 → 213.7 or 296.2 → 215.3; eucatropine: 292.2 → 109.1; benfluorex: 352.1 → 230.3, and warfarin: 309.2 → 163.2

HCC827 [4] = assay: BrdU proliferation assay, 3D cell culture; type: cell-based; conditions: Homo sapiens, HCC827, 3D cell culture, ±SD, N = 2
Procedure: (§4) Cells were grown in 96 well Perfecta 3 D hanging drop plates 5000 cell/well for 4 days until spheres were formed (and checked under the microscope). After sphere formation cells were treated with compounds followed by 72 h incubation. Cell viability assay was performed according to the manufacturer’s instruction, using CellTiter GLO 3 D for 3 D cell culture (Promega); cell incubation was 5 min on the shaker followed by 25 min incubation in the dark. Plates were read using PE EnVision luminescence.
as §2, §3

NCI-H358 [5] = assay: Cell viability assay, 3D hanging drop cell culture (CellTiter GLO 3D); type: cell-based; conditions: Homo sapiens; NCI-H358, 3D hanging drop cell culture, 72 h; ±SD, N = 2; read-out: IC50 antitumor activity NCI-H358 3D
Procedure: (§5) Compounds are diluted 1:3. 500 nL (for 2 D cell culture) or 400 nL (for 3 D cell culture) of compound were transferred from mother plate to test plate by using Mosquito (TTP labtech). DMSO percentage in test concentrations was 0.5 − 1.0%. Starting concentration of the test compounds and standard compound doxorubicin was 50 µM (2 D cell culture) or 100 µM (3 D cell culture).
as §4, §3

HCC827 [6] = assay: as above; type: cell-based; conditions: Homo sapiens; HCC827, 3D hanging drop cell culture, 72 h; ±SD, N = 2; read-out: IC50 antitumor activity HCC827 3D
Procedure: as §5, §4, §3

A549 = assay: as above; type: cell-based; conditions: Homo sapiens; A549, 3D hanging drop cell culture, 72 h; ±SD, N = 2; read-out: IC50 antitumor activity A549 3D
Procedure: as §5, §4, §3

[7] = human plasma, read-out: PPB % bound, Human (converted)
[8] = mouse plasma, read-out: PPB % bound, Mouse (converted)

| SMILES | IC50 (NCI-H358 [1]) [µM] | IC50 (HCC827 [2]) [µM] | fraction unbound at 4 h, 5 µM [3, 7] | recovery at 4 h, 5 µM ([3]; human plasma) [%] | fraction unbound at 4 h, 5 µM [3, 8] | recovery at 4 h, 5 µM ([3]; mouse plasma) [%] | IC50 (HCC827 [4]) [µM] | IC50 (NCI-H358 [5]) [µM] | IC50 (HCC827 [6]) [µM] | IC50 (A549) [µM] |
| --- | --- | --- | --- | --- | --- | --- | --- | --- | --- | --- |
| Cl.N#Cc1ccc(-c2nc3ccc(C4=NCCCN4)cc3s2)cc1 [Compound 5b, 2–(4-Cyanophenyl)-6–(3,4,5,6-tetrahydropyrimidin-1-ium-2-yl)benzothiazole chloride] | > 50 | > 50 | 0.334 | 93 | 0.249 | 98 | > 100 | > 100 | > 100 | 60 ± 1.44 |
| Cl.c1ccc2cc(-c3nc4ccc(C5=NCCCN5)cc4s3)ccc2c1 [Compound 5h, 2-(Naphthalene-2-yl)-6–(3,4,5,6-tetrahydropyrimidin-1-ium-2-yl)benzothiazole chloride] | 7 ± 0.07 | 9 ± 0.83 | 0.024 | 80 | 0.027 | 85 | 12 ± 0.26 | 31 ± 0.33 | 12 ± 0.26 | 14 ± 0.38 |
| c1ccc2c(c1)cc(-c1nc3cc(C4=NCCCN4)ccc3[nH]1)c1ccccc12 [Compound 6g, 2-(Phenanthrene-9-yl)-5(6)–(3,4,5,6-tetrahydropyrimidin-1-ium-2-yl)benzimidazole chloride] | > 50 | > 50 | 0.015 | 96 | 0.003 | 95 | > 100 | > 100 | > 100 | > 100 |
| Cl.c1ccc2sc(-c3nc4ccc(C5=NCCCN5)cc4s3)cc2c1 [Compound 5e, 2-(Benzo[b]thiophen-2-yl)-6–(3,4,5,6-tetrahydropyrimidin-1-ium-2-yl)benzothiazole chloride] | 9 ± 0.65 | 10 ± 1.21 | 0.021 | 79 | 0.013 | 82 | 24 ± 7.63 | 34 ± 0.16 | 22 ± 9.45 | 23 ± 6.24 |
| Cl.FC(F)(F)c1ccc(-c2nc3ccc(C4=NCCCN4)cc3s2)cc1 [Compound 5c, 2–(4-Trifluoromethylphenyl)-6–(3,4,5,6-tetrahydropyrimidin-1-ium-2-yl)benzothiazole chloride] | 16 ± 4.14 | 15 ± 2.18 | 0.03 | 89 | 0.025 | 86 | 21 ± 1.41 | 34 ± 0.7 | 12 ± 0.16 | 16 ± 0.65 |
| Cl.c1ccc2nc(-c3nc4ccc(C5=NCCCN5)cc4s3)ccc2c1 [Compound 5d, 2-(Quinoline-2-yl)-6–(3,4,5,6-tetrahydropyrimidin-1-ium-2-yl)benzothiazole chloride] | 9 ± 0.31 | 11 ± 0.17 | 0.053 | 76 | 0.04 | 82 | 32 ± 11.7 | 40 ± 4.89 | > 100 | 16 ± 1.3 |
| Cl.c1ccc2sc(-c3nc4ccc(C5=NCCCN5)cc4s3)nc2c1 [Compound 5g, 2-(Benzothiazole-2-yl)-6–(3,4,5,6-tetrahydropyrimidin-1-ium-2-yl)benzothiazole chloride] | 13 ± 0.45 | 18 ± 0.76 | 0.049 | 94 | 0.04 | 85 | 17 ± 0.93 | 31 ± 0.05 | 17 ± 0.93 | 15 ± 1.35 |

The remaining lines, values ahead:

| IC50 (NCI-H358 [1]) [µM] | IC50 (HCC827 [2]) [µM] | fraction unbound at 4 h, 5 µM [3, 7] | recovery at 4 h, 5 µM ([3]; human plasma) [%] | fraction unbound at 4 h, 5 µM [3, 8] | recovery at 4 h, 5 µM ([3]; mouse plasma) [%] | IC50 (HCC827 [4]) [µM] | IC50 (NCI-H358 [5]) [µM] | IC50 (HCC827 [6]) [µM] | IC50 (A549) [µM] | SMILES |
| --- | --- | --- | --- | --- | --- | --- | --- | --- | --- | --- |
| > 50 | > 50 | 0.349 | 81 | 0.259 | 91 | > 100 | > 100 | > 100 | > 100 | c1ccc2c(-c3nc4ccc(C5=NCCCN5)cc4[nH]3)c[nH]c2c1 [Compound 6e, 2-(1H-Indol-3-yl)-5(6)–(3,4,5,6-tetrahydropyrimidin-1-ium-2-yl)benzimidazole chloride] |
| 7 ± 0.3 | 7 ± 0.35 | 0.403 | 75 | 0.371 | 79 | 12 ± 0.25 | 17 ± 1.94 | 9 ± 3.05 | 13 ± 1.46 | c1ccc(-c2nc3cc(C4=NCCCN4)ccc3[nH]2)cc1 [Compound 6a, 2-Phenyl-5(6)–(3,4,5,6-tetrahydropyrimidin-1-ium-2-yl)benzimidazole chloride] |
| > 50 | > 50 | 0.457 | 91 | 0.365 | 87 | > 100 | > 100 | > 100 | > 100 | N#Cc1ccc(-c2nc3cc(C4=NCCCN4)ccc3[nH]2)cc1 [Compound 6b, 2–(4-Cyanophenyl)-5(6)–(3,4,5,6-tetrahydropyrimidin-1-ium-2-yl)benzimidazole chloride] |
| > 50 | > 50 | 0.074 | 86 | 0.061 | 89 | > 100 | > 100 | > 100 | > 100 | c1ccc2sc(-c3nc4cc(C5=NCCCN5)ccc4[nH]3)cc2c1 [Compound 6d, 2-(Benzo[b]thiophen-2-yl)-5(6)–(3,4,5,6-tetrahydropyrimidin-1-ium-2-yl)benzimidazole chloride] |
